Results on 40 molecules are retold here after PubChem BioAssay (NCI).

Some test systems named below: MDA-N; DMS 273 small cell lung; M19-MEL melanoma; SNB-78 CNS; DMS 114 small cell lung; XF 498 CNS; KM20L2 colon; RXF-631 renal; DLD-1 colon.
Holding throughout (test): inhibition of tumour cell growth, NCI panel, 48 h

Several values for one entry are separate records, joined by “and”; a condition that tells them apart may be missing. Equal entries are not always repeated.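 Five concentrations, 48 hours, 96-well plates. GI50: concentration for 50% inhibition of growth. TGI is the concentration that stops growth completely.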

In the assay with MDA-N, `CCOc1cc2c(NCCCN(CCO)CCO)ncnc2c(OCC)c1OCC` came in with a TGI of over 100 µM.
As to `COc1cccc(C(=O)N2CCc3ccccc32)c1OC`, the TGI with DMS 273 small cell lung, with M19-MEL melanoma, in the assay with SNB-78 CNS, with DMS 114 small cell lung, with XF 498 CNS and in the assay with KM20L2 colon was over 100 µM each time. The TGI with RXF-631 renal was over 100 µM.
For `COc1cc2c3c(c1)c1cc(OC)c(OC)cc1c[n+]3CC2`, in the assay with MDA-N, the GI50 was over 100 µM; the TGI is 50 µM and > 100 µM.
In the case of `O=C1C=C(Br)C(=O)C12CCc1ccccc12` (stereo not given), the TGI came out at 37.8 µM in the assay on DMS 273 small cell lung; 36.5 µM in the assay with M19-MEL melanoma; 59.4 µM with SNB-78 CNS; 38 µM in the assay with MDA-N; 28.8 µM in the assay with DLD-1 colon; 45.2 µM in the assay with DMS 114 small cell lung. For the same molecule, the values for the TGI with XF 498 CNS and in the assay with KM20L2 colon were 28.8 µM and 64.5 µM, respectively.
Regarding `Cc1c(C(=O)c2ccccc2C(=O)O)c2ccccc2n1C`, the TGI in the assay on DMS 273 small cell lung, with M19-MEL melanoma, in the assay on SNB-78 CNS, in the assay on DLD-1 colon, with DMS 114 small cell lung and in the assay with XF 498 CNS was over 100 µM in each case. In addition, in the assay with KM20L2 colon, the TGI was over 100 µM.
Consider `COc1ccc(C(N)=O)cc1N=NN(C)C`, for which the TGI with DMS 273 small cell lung, with M19-MEL melanoma, in the assay on DLD-1 colon and in the assay with KM20L2 colon was over 100 µM each time.
For `CC(=O)O[C@H]1CC[C@@]2(C)C(=CC[C@H]3C4=CC=C(C(C)=O)[C@@]4(C)CCC32)C1` (stereo not given in full), the TGI with DMS 273 small cell lung, in the assay with M19-MEL melanoma, in the assay with SNB-78 CNS, in the assay with DLD-1 colon and in the assay with KM20L2 colon was over 100 µM in each case.
As to `COC1OC(CO)C(O)C(O)C1Br` (stereo not given), the TGI in the assay with DMS 273 small cell lung, in the assay on M19-MEL melanoma, with SNB-78 CNS, in the assay on DLD-1 colon, in the assay on XF 498 CNS and in the assay with KM20L2 colon was over 100 µM in each case. The TGI in the assay on RXF-631 renal is over 100 µM.
On to `CC(C)c1ccc(/C(C(=O)O)=C(\O)C(=O)O)cc1`, for which the TGI with MDA-N is over 100 µM.
The molecule `C[C@]1(CO)[C@H]2CC[C@@]34C=C[C@@](CO)(CC[C@H]3[C@]2(C)CC[C@H]1O)C4` had a TGI in the assay with MDA-N of over 100 µM.
Regarding `COc1cc2noc(-c3ccccc3)c2cc1OC`, the TGI with DMS 273 small cell lung, with M19-MEL melanoma, in the assay with SNB-78 CNS, with DLD-1 colon, in the assay on DMS 114 small cell lung and in the assay on KM20L2 colon was over 100 µM in each case. In the assay on RXF-631 renal, this molecule gave a TGI of over 100 µM.
On to `CC(C)(C)NCc1cc(C(C)(C)C)cc(-c2ccc(Cl)cc2)c1O`, for which, in the assay on MDA-N, the TGI was determined as 31.4 µM.
Turning to `CCCCNN`, in the assay with MDA-N, the TGI was over 100 µM.
Turning to `CC(=O)OCCOCNC(=S)N/N=C(\C)c1cnc2ccccc2n1`, the TGI with DMS 273 small cell lung is over 100 µM; with M19-MEL melanoma, 77.1 µM; in the assay with SNB-78 CNS, over 100 µM; in the assay with DLD-1 colon, over 100 µM; in the assay on DMS 114 small cell lung it was 47.4 µM; in the assay with XF 498 CNS, over 100 µM. This molecule had a TGI in the assay on KM20L2 colon of over 100 µM.
Consider `COc1c(C(=O)O)oc2c(OC)cccc12`, for which the TGI in the assay with DMS 273 small cell lung, in the assay with M19-MEL melanoma, in the assay on SNB-78 CNS and in the assay with DMS 114 small cell lung was over 100 µM throughout.
`Cn1c(=O)nc2n(-c3cccc(F)c3)c3ccccc3nc-2c1=O`: the TGI with DMS 273 small cell lung is 32.8 µM; in the assay on M19-MEL melanoma, 5.3 µM; with SNB-78 CNS, 68.4 µM; in the assay with DLD-1 colon, over 100 µM; in the assay with KM20L2 colon it was 45.4 µM.
In the assay with MDA-N, `O=c1[nH]c(=O)n(C2OC(CO)C(O)C2O)c2c1CCCC2` (stereo not given) yielded a TGI of over 100 µM.
In the assay on MDA-N, `C=C1C(=O)OC2CC1C(O)C/C(C)=C/CC/C(C)=C/C(O)CC2C` (stereo not given) yielded a TGI of 9.53 µM.
For `CN1CCCN(C)C1c1cc([N+](=O)[O-])ccc1O`, the TGI with MDA-N was over 100 µM.
Turning to `CN(C)C(N)=NC#N`, the TGI with DMS 273 small cell lung, with M19-MEL melanoma, with SNB-78 CNS, with DLD-1 colon, in the assay with DMS 114 small cell lung and in the assay on KM20L2 colon was over 100 µM throughout. For the same molecule, in the assay with RXF-631 renal, the TGI is over 100 µM.
As for `COc1cccc(NC(=O)CC(=O)N2N=C(N(CCC#N)c3ccccc3C)CC2c2ccccc2)c1` (stereo not given), the TGI in the assay on DMS 273 small cell lung, in the assay with M19-MEL melanoma, in the assay with SNB-78 CNS, in the assay on DLD-1 colon, with DMS 114 small cell lung and in the assay with KM20L2 colon was over 100 µM throughout. In the assay on RXF-631 renal, the TGI is over 100 µM.
On to `CC1(C)OC(=O)C=C([O-])O1.CC1(C)OC(=O)C=C([O-])O1.O=S(=O)([O-])c1ccc([O-])c2ncccc12.O=S(=O)([O-])c1ccc([O-])c2ncccc12.[Ti+4]`, for which the GI50 in the assay with DMS 273 small cell lung is over 100 µM; in the assay on M19-MEL melanoma it was over 100 µM; in the assay on SNB-78 CNS it was over 100 µM; in the assay with DLD-1 colon, over 100 µM; in the assay with DMS 114 small cell lung, over 100 µM; with KM20L2 colon it was 43.3 µM. For the same molecule, the TGI in the assay with DMS 273 small cell lung, with M19-MEL melanoma, with SNB-78 CNS, in the assay on DLD-1 colon, in the assay with DMS 114 small cell lung and in the assay with KM20L2 colon was over 100 µM each time.
For `CC[C@@]1(O)C(=O)NCc2c1cc1n(c2=O)Cc2cc3c(N)cccc3nc2-1`, in the assay with MDA-N, the GI50 was 3.4 µM and the TGI was found to be 28.1 µM.
`C(CCC[Te][Te]CCCCCCOC1CCCCO1)CCOC1CCCCO1` (stereo not given): the TGI in the assay on SNB-78 CNS was determined as 38.1 µM; with DLD-1 colon, 45.8 µM; with DMS 114 small cell lung, 25.5 µM; with XF 498 CNS, 21.9 µM; with KM20L2 colon, 28.7 µM.
Turning to `C=C=C(CC)C(C(=O)OC)N(CC)CC` (stereo not given), the TGI in the assay on M19-MEL melanoma, in the assay on SNB-78 CNS, in the assay with DLD-1 colon, with DMS 114 small cell lung, in the assay with XF 498 CNS and in the assay with KM20L2 colon was over 100 µM each time. In the assay with RXF-631 renal, this molecule came in with a TGI of over 100 µM.
Regarding `COCC(=O)CP(=O)(OC)OC`, the TGI in the assay with DMS 273 small cell lung, in the assay with M19-MEL melanoma, with SNB-78 CNS, in the assay on DMS 114 small cell lung and in the assay on XF 498 CNS was over 100 µM throughout.
In the case of `COC(=O)c1sc(C(=O)OC)c2c1CSC2`, the TGI in the assay on DMS 273 small cell lung, with M19-MEL melanoma, in the assay with SNB-78 CNS, with MDA-N, with DLD-1 colon and in the assay on DMS 114 small cell lung was over 100 µM in each case. Also, the values for the TGI in the assay with XF 498 CNS, in the assay with KM20L2 colon and in the assay on RXF-631 renal were 81.6 µM, over 100 µM and over 100 µM, respectively.
Turning to `COc1ccc2c(c1OC)C1=C(C2=O)c2cc3c(cc2CCN1)OCO3`, the TGI in the assay with DMS 273 small cell lung was 52.9 µM; with M19-MEL melanoma, over 100 µM; with SNB-78 CNS, over 100 µM; in the assay with DLD-1 colon it was over 100 µM; in the assay with DMS 114 small cell lung, 56.7 µM; in the assay on XF 498 CNS it was 87.2 µM. The molecule also came in with a TGI in the assay with KM20L2 colon of 41 µM.
Take `CC(=O)OC1CC2C(C)(C)C(=O)C=C[C@]2(C)C2CCC3(C)C(c4ccoc4)C(=O)[C@H]4O[C@]43[C@]12C` (stereo not given in full): the TGI in the assay with M19-MEL melanoma was 55.2 µM; in the assay on SNB-78 CNS it was over 100 µM; with DLD-1 colon it was 28.3 µM; in the assay on DMS 114 small cell lung, over 100 µM.
Take `Cc1c(C(=O)NCCO)[n+](=O)c2cc(Cl)ccc2n1[O-]`: the TGI in the assay with DMS 273 small cell lung, in the assay on M19-MEL melanoma, in the assay on SNB-78 CNS, with DLD-1 colon, with DMS 114 small cell lung and in the assay on KM20L2 colon was over 100 µM in each case.
Turning to `CN1NC2(CCCCC2)ON=C1c1ccccc1`, the TGI in the assay on SNB-78 CNS, with DLD-1 colon, with DMS 114 small cell lung and in the assay on KM20L2 colon was over 100 µM each time.
On to `O=c1cc2ccccc2nn1Cc1ccccc1Cl`, for which the TGI with DMS 273 small cell lung, with M19-MEL melanoma, with SNB-78 CNS, with DLD-1 colon, in the assay on DMS 114 small cell lung and in the assay on XF 498 CNS was over 100 µM throughout. For the same molecule, the TGI in the assay with KM20L2 colon is over 100 µM.
Turning to `O=C(O)/C(=C/c1c(O)ccc2ccccc12)c1csc(-c2nc(/C(=C\c3c(O)ccc4ccccc34)C(=O)O)cs2)n1`, the TGI in the assay on M19-MEL melanoma amounted to 19.9 µM; in the assay on SNB-78 CNS, 34.7 µM; with DLD-1 colon, 35.5 µM; in the assay with DMS 114 small cell lung, 25.5 µM; in the assay on KM20L2 colon, 50.6 µM.
As for `C1CCN(c2nsc(N3CCCCC3)n2)CC1`, the TGI in the assay on DMS 273 small cell lung, with M19-MEL melanoma, in the assay with SNB-78 CNS, in the assay with DLD-1 colon, in the assay on DMS 114 small cell lung and in the assay with KM20L2 colon was over 100 µM throughout. The molecule also showed a TGI in the assay with RXF-631 renal of over 100 µM.
Consider `CO/C1=C\C(C)=C\C(C)C(O)C(C)C/C(C)=C/C=C/C(OC)C(C(C)C(O)C(C)C2(O)CC(O)C(C)C(C(C)C)O2)OC1=O` (stereo not given), for which the TGI in the assay on DMS 273 small cell lung is 0.0107 µM and 0.0233 µM; in the assay with M19-MEL melanoma, 3.12 µM; in the assay with SNB-78 CNS it was 25 µM; in the assay on DLD-1 colon, 21.7 µM; with DMS 114 small cell lung it was 10.3 µM; with XF 498 CNS it was 0.0849 µM and 0.0294 µM. In the assay on XF 498 CNS, the GI50 was 0.0122 µM.
Take `CCOC(=O)C1(Cc2ccccc2)CCCCCN1` (stereo not given): the TGI in the assay on DMS 273 small cell lung, in the assay on M19-MEL melanoma, in the assay with SNB-78 CNS, in the assay with DLD-1 colon, in the assay on DMS 114 small cell lung and with KM20L2 colon was over 100 µM throughout. The TGI with RXF-631 renal was over 100 µM.
Molecule `OCCSCc1ccccc1` came in with a TGI in the assay with MDA-N of over 100 µM.
The same measure, in the same setting: with `CN(C)N1C(=O)c2ccccc2NC1c1ccccc1` (stereo not given) the figure was over 100 µM.
For the molecule `CCNC(=O)C#CC(=O)NCC`, the GI50 in the assay with DMS 273 small cell lung was over 10 µM; with M19-MEL melanoma, over 10 µM; with SNB-78 CNS, over 100 µM; in the assay on DLD-1 colon, over 10 µM; in the assay with DMS 114 small cell lung it was over 10 µM; with KM20L2 colon, over 10 µM. Also, the GI50 with RXF-631 renal is over 10 µM. For the same molecule, the TGI with DMS 273 small cell lung was > 10 µM and 39.6 µM; with M19-MEL melanoma, over 100 µM; in the assay with SNB-78 CNS, over 100 µM; in the assay with DLD-1 colon, over 64.9 µM; in the assay with DMS 114 small cell lung it was over 100 µM; with XF 498 CNS it was over 100 µM. The TGI with KM20L2 colon and with RXF-631 renal was over 100 µM in each case.
As to `CCC(=O)C(C)C1=Nc2nnc(CCCCCCCc3nnc4n3C(=O)C(C(C)C(=O)CC)=N4)n2C1=O` (stereo not given), the TGI in the assay with M19-MEL melanoma, in the assay with DMS 114 small cell lung, with XF 498 CNS and in the assay on KM20L2 colon was over 100 µM throughout.
